2 compounds from ChEMBL document CHEMBL1158672, “Rubrobramide, a cytotoxic and phytotoxic metabolite from Cladobotyrum rubrobrunnescens” (1998) can be followed below.

The test system of test [1] is Meloidogyne incognita. The experiment in a line: Nematicidal activity against Meloidogyne incognita. As to conditions: read-out: LD50 (the source's name). Type of test: functional.
For test [2], the system named is Meloidogyne incognita. The experiment in a line: Nematicidal activity against Meloidogyne incognita up to 100 ug/mL. In kind it is functional, organism-based.
The test system of the next test is HL-60. The test is described as follows: Cytotoxicity against human HL60 cells up to 100 ug/mL. In kind it is functional, cell-based.
The test system of the next test is HeLa S3. The test is described as follows: Cytotoxicity against human HeLaS3 cells up to 100 ug/mL. In kind it is functional, cell-based.
Another test has as its system L1210. The experiment in a line: Antiproliferative activity against mouse L1210 cells at 50 ug/mL. Type of test: functional.
Another test deals with Lepidium sativum. The test is described as follows: Phytotoxicity against Lepidium sativum assessed as inhibition of seedling germination at 100 ug/mL. Details: scale not given: the % may be the effect or the level left. Type of test: functional.
In a further test the test system is Setaria italica. The test is described as follows: Phytotoxicity against Setaria italica assessed as inhibition of seedling germination at 100 ug/mL. Type of test: functional. Details: scale not given: the % may be the effect or the level left.

Structures are written as SMILES. ≈ marks a conversion by molar mass, not a printed value. Calls of active or inactive are those of the source. The rule behind the calls is not given here.

Consider `COc1c(-c2ccco2)coc(=O)c1C` [CLADOBOTRIN], for which the LC50 with Meloidogyne incognita [1] was determined as 100 µg/mL (≈ 485 µM).
Turning to `CC(C)C[C@]12NC(=O)[C@@]3(O)C(=O)C[C@](C)(O[C@H]31)O2` [RUBROBRAMIDE], the outcome in the test on Meloidogyne incognita [2], with HL-60 and with HeLa S3 was inactive. Moreover, the Activity in the test on L1210, in the test with Lepidium sativum and in the test on Setaria italica was 50% each time.
